{
  "source": "the supplement of paper PMC10981050",
  "assay_in_all_cases": "cell viability relative to vehicle control; higher = less cytotoxic",
  "key": {"OCI-AML2": {"tested_on": "OCI-AML2", "conditions": "SRSF2 genotype: SRSF2 WT", "method": "(§1)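 Isogenic SRSF2 WT and CRISPR SRSF2 P95 mutant clones of MOLM14, OCI-AML2 and MARIMO were exposed to ROCK inhibitors at 7 doses (0.037 to 29.9 µM) for 48 h. Viability was read by CellTiter-Glo luminescence and normalised to the vehicle control on each plate (%).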"}, "MARIMO": {"tested_on": "MARIMO", "conditions": "SRSF2 genotype: SRSF2 WT", "method": "as §1"}, "MOLM14": {"tested_on": "MOLM14", "method": "as §1"}, "[1]": {"conditions": "0.037 µM, SRSF2 genotype: SRSF2 WT"}, "[2]": {"conditions": "0.129 µM, SRSF2 genotype: SRSF2 WT"}, "[3]": {"conditions": "0.369 µM, SRSF2 genotype: SRSF2 WT"}, "[4]": {"conditions": "0.997 µM, SRSF2 genotype: SRSF2 WT"}, "[5]": {"conditions": "3.49 µM, SRSF2 genotype: SRSF2 WT"}, "[6]": {"conditions": "9.97 µM, SRSF2 genotype: SRSF2 WT"}, "[7]": {"conditions": "29.9 µM, SRSF2 genotype: SRSF2 WT"}},
  "note": "Several values for one entry are separate records, joined by “and”; a condition that tells them apart may be missing. Equal entries are not always repeated. ± gives the standard deviation of the averaged measurements.",
  "data": [
    {"molecule": "C[C@@H](N)c1ccc(C(=O)Nc2ccnc3[nH]ccc23)cc1", "values": [
      {"measurement": "cell viability", "setting": "OCI-AML2; 0.037 µM", "result": "104 ± 7.8", "unit": "%"},
      {"measurement": "cell viability", "setting": "OCI-AML2; 0.129 µM", "result": "99.9 ± 1", "unit": "%"},
      {"measurement": "cell viability", "setting": "OCI-AML2; 0.369 µM", "result": "93.2 ± 4.4", "unit": "%"},
      {"measurement": "cell viability", "setting": "OCI-AML2; 0.997 µM", "result": "85 ± 1.9", "unit": "%"},
      {"measurement": "cell viability", "setting": "OCI-AML2; 3.49 µM", "result": "52 ± 2", "unit": "%"},
      {"measurement": "cell viability", "setting": "OCI-AML2; 9.97 µM", "result": "30.4 ± 4.6", "unit": "%"},
      {"measurement": "cell viability", "setting": "OCI-AML2; 29.9 µM", "result": "7.89 ± 0.6", "unit": "%"},
      {"measurement": "cell viability", "setting": "MARIMO; 0.037 µM", "result": "99.5 ± 4.6", "unit": "%"},
      {"measurement": "cell viability", "setting": "MARIMO; 0.129 µM", "result": "101 ± 3.1", "unit": "%"},
      {"measurement": "cell viability", "setting": "MARIMO; 0.369 µM", "result": "96.2 ± 1.6", "unit": "%"},
      {"measurement": "cell viability", "setting": "MARIMO; 0.997 µM", "result": "101 ± 1.3", "unit": "%"},
      {"measurement": "cell viability", "setting": "MARIMO; 3.49 µM", "result": "93.99 ± 0.9", "unit": "%"},
      {"measurement": "cell viability", "setting": "MARIMO; 9.97 µM", "result": "84.1 ± 7.2", "unit": "%"},
      {"measurement": "cell viability", "setting": "MARIMO; 29.9 µM", "result": "35.1 ± 0.58", "unit": "%"},
      {"measurement": "cell viability", "setting": "MOLM14; [1]", "result": "90.1 ± 21", "unit": "%"},
      {"measurement": "cell viability", "setting": "MOLM14; [2]", "result": "94 ± 13", "unit": "%"},
      {"measurement": "cell viability", "setting": "MOLM14; [3]", "result": "87.1 ± 18", "unit": "%"},
      {"measurement": "cell viability", "setting": "MOLM14; [4]", "result": "81.4 ± 17", "unit": "%"},
      {"measurement": "cell viability", "setting": "MOLM14; [5]", "result": "51.8 ± 14", "unit": "%"},
      {"measurement": "cell viability", "setting": "MOLM14; [6]", "result": "29.4 ± 7.5", "unit": "%"},
      {"measurement": "cell viability", "setting": "MOLM14; [7]", "result": "7.13 ± 1.6", "unit": "%"}
    ]},
    {"molecule": "CC1=C(C(=O)Nc2cc3cn[nH]c3cc2F)C(c2ccc(C(F)(F)F)cc2)CC(=O)N1", "note": "(stereo not given)", "values": [
      {"measurement": "cell viability", "setting": "OCI-AML2; 0.037 µM", "result": "107 ± 1.6", "unit": "%"},
      {"measurement": "cell viability", "setting": "OCI-AML2; 0.129 µM", "result": "101 ± 5", "unit": "%"},
      {"measurement": "cell viability", "setting": "OCI-AML2; 0.369 µM", "result": "96.9 ± 7.2", "unit": "%"},
      {"measurement": "cell viability", "setting": "OCI-AML2; 0.997 µM", "result": "93.11 ± 0.21", "unit": "%"},
      {"measurement": "cell viability", "setting": "OCI-AML2; 3.49 µM", "result": "68 ± 7.8", "unit": "%"},
      {"measurement": "cell viability", "setting": "OCI-AML2; 9.97 µM", "result": "43.5 ± 9.3", "unit": "%"},
      {"measurement": "cell viability", "setting": "OCI-AML2; 29.9 µM", "result": "39.4 ± 6", "unit": "%"},
      {"measurement": "cell viability", "setting": "MARIMO; 0.037 µM", "result": "103 ± 1.2", "unit": "%"},
      {"measurement": "cell viability", "setting": "MARIMO; 0.129 µM", "result": "100.4 ± 0.44", "unit": "%"},
      {"measurement": "cell viability", "setting": "MARIMO; 0.369 µM", "result": "96 ± 7.2", "unit": "%"},
      {"measurement": "cell viability", "setting": "MARIMO; 0.997 µM", "result": "103 ± 5.5", "unit": "%"},
      {"measurement": "cell viability", "setting": "MARIMO; 3.49 µM", "result": "98.9 ± 4.7", "unit": "%"},
      {"measurement": "cell viability", "setting": "MARIMO; 9.97 µM", "result": "92.2 ± 11", "unit": "%"},
      {"measurement": "cell viability", "setting": "MARIMO; 29.9 µM", "result": "95 ± 8.2", "unit": "%"},
      {"measurement": "cell viability", "setting": "MOLM14; 0.037 µM, SRSF2 genotype: SRSF2 P95 mutant", "result": "112% and 102% and 97.1%"},
      {"measurement": "cell viability", "setting": "MOLM14; [1]", "result": "94 ± 18", "unit": "%"},
      {"measurement": "cell viability", "setting": "MOLM14; 0.129 µM, SRSF2 genotype: SRSF2 P95 mutant", "result": "107% and 105% and 103%"},
      {"measurement": "cell viability", "setting": "MOLM14; [2]", "result": "96.4 ± 9.5", "unit": "%"},
      {"measurement": "cell viability", "setting": "MOLM14; [3]", "result": "90.1 ± 19", "unit": "%"},
      {"measurement": "cell viability", "setting": "MOLM14; [4]", "result": "82.5 ± 16", "unit": "%"},
      {"measurement": "cell viability", "setting": "MOLM14; [5]", "result": "66.2 ± 16", "unit": "%"},
      {"measurement": "cell viability", "setting": "MOLM14; [6]", "result": "60.3 ± 14", "unit": "%"},
      {"measurement": "cell viability", "setting": "MOLM14; [7]", "result": "53 ± 13", "unit": "%"}
    ]},
    {"molecule": "CC1=C(C(=O)Nc2ccc3[nH]ncc3c2)C(c2ccc(F)cc2)NC(=O)N1", "note": "(stereo not given)", "values": [
      {"measurement": "cell viability", "setting": "OCI-AML2; 0.037 µM", "result": "110 ± 6.1", "unit": "%"},
      {"measurement": "cell viability", "setting": "OCI-AML2; 0.129 µM", "result": "103 ± 7.4", "unit": "%"},
      {"measurement": "cell viability", "setting": "OCI-AML2; 0.369 µM", "result": "102 ± 4.6", "unit": "%"},
      {"measurement": "cell viability", "setting": "OCI-AML2; 0.997 µM", "result": "101 ± 6.8", "unit": "%"},
      {"measurement": "cell viability", "setting": "OCI-AML2; 3.49 µM", "result": "78.3 ± 5.9", "unit": "%"},
      {"measurement": "cell viability", "setting": "OCI-AML2; 9.97 µM", "result": "48.1 ± 6.7", "unit": "%"},
      {"measurement": "cell viability", "setting": "OCI-AML2; 29.9 µM", "result": "39 ± 4.3", "unit": "%"},
      {"measurement": "cell viability", "setting": "MARIMO; 0.037 µM", "result": "102.6 ± 0.94", "unit": "%"},
      {"measurement": "cell viability", "setting": "MARIMO; 0.129 µM", "result": "102 ± 2.7", "unit": "%"},
      {"measurement": "cell viability", "setting": "MARIMO; 0.369 µM", "result": "100 ± 2.2", "unit": "%"},
      {"measurement": "cell viability", "setting": "MARIMO; 0.997 µM", "result": "101 ± 4.8", "unit": "%"},
      {"measurement": "cell viability", "setting": "MARIMO; 3.49 µM", "result": "96.1 ± 2.5", "unit": "%"},
      {"measurement": "cell viability", "setting": "MARIMO; 9.97 µM", "result": "97.6 ± 13", "unit": "%"},
      {"measurement": "cell viability", "setting": "MARIMO; 29.9 µM", "result": "99.8 ± 5.5", "unit": "%"},
      {"measurement": "cell viability", "setting": "MOLM14; [1]", "result": "96.5 ± 12", "unit": "%"},
      {"measurement": "cell viability", "setting": "MOLM14; [2]", "result": "96.7 ± 4.2", "unit": "%"},
      {"measurement": "cell viability", "setting": "MOLM14; [3]", "result": "102 ± 14", "unit": "%"},
      {"measurement": "cell viability", "setting": "MOLM14; [4]", "result": "95.8 ± 12", "unit": "%"},
      {"measurement": "cell viability", "setting": "MOLM14; [5]", "result": "78.3 ± 14", "unit": "%"},
      {"measurement": "cell viability", "setting": "MOLM14; [6]", "result": "66.3 ± 14", "unit": "%"},
      {"measurement": "cell viability", "setting": "MOLM14; [7]", "result": "54.9 ± 10", "unit": "%"}
    ]}
  ]
}
